# Values of other authors in patent US20200289553A1, “Compositions and Methods for the Treatment of Metabolic Conditions” (REVEN IP HOLDCo LLC, priority 2017, published 2020).
# Tests used:
# [1] = rats, 100 mg/kg body weight daily
# [2] = 241 osteoporotic women, 45 mg/day vitamin K2 and 150 mg elemental calcium, after two years
# [3] = rabbits
compound,measurement,setting,value
CC(C)=CCC/C(C)=C/CC/C(C)=C/CC/C(C)=C/CC1=C(C)C(=O)c2ccccc2C1=O [vitamin K2],calcium in kidneys and aorta induced by megadose of synthetic vitamin D,[1],inhibited the increase in calcium in both kidneys and aorta
same,lumbar bone mineral density,[2],maintain lumbar bone mineral density
same,fracture incidence,[2]; 30% in the control group,10%
same,atherosclerotic plaque progression,[3]; 1-10 mg/kg daily for 10 weeks,inhibited the atherosclerotic plaque progression in the aorta and pulmonary arteries
same,"total cholesterol levels, lipid peroxidation, ester cholesterol deposition in the aorta and factor X activity in plasma",[3]; compared to the control group,seen to reduce
